From PubChem BioAssay (NCI)
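Five concentrations, 48 hours, 96-well plates. Abbreviation: GI50, concentration required for 50% inhibition of growth. TGI is the concentration that stops growth completely.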

How the values were obtained:
Test in all cases: inhibition of tumour cell growth, NCI panel, 48 h
786-0 renal = test system: 786-0 renal
A498 renal = test system: A498 renal
A549 NSCLC = test system: A549 NSCLC
CAKI-1 renal = test system: CAKI-1 renal
CCRF-CEM leukemia = test system: CCRF-CEM leukemia
DU-145 prostate = test system: DU-145 prostate
EKVX NSCLC = test system: EKVX NSCLC
HCC-2998 colon = test system: HCC-2998 colon
HCT-15 colon = test system: HCT-15 colon
HL-60(TB) leukemia = test system: HL-60(TB) leukemia
HOP-62 NSCLC = test system: HOP-62 NSCLC
HOP-92 NSCLC = test system: HOP-92 NSCLC
HS 578T breast = test system: HS 578T breast
HT29 colon = test system: HT29 colon
IGROV1 ovarian = test system: IGROV1 ovarian
LOX IMVI melanoma = test system: LOX IMVI melanoma
M14 melanoma = test system: M14 melanoma
MALME-3M melanoma = test system: MALME-3M melanoma
MCF7 breast = test system: MCF7 breast
MDA-MB-231 breast = test system: MDA-MB-231 breast
MDA-MB-435 = test system: MDA-MB-435
NCI-H226 lung = test system: NCI-H226 lung
NCI-H23 lung = test system: NCI-H23 lung
NCI-H460 lung = test system: NCI-H460 lung
NCI/ADR-RES ovarian = test system: NCI/ADR-RES ovarian
OVCAR-3 ovarian = test system: OVCAR-3 ovarian
OVCAR-5 ovarian = test system: OVCAR-5 ovarian
OVCAR-8 ovarian = test system: OVCAR-8 ovarian
PC-3 prostate = test system: PC-3 prostate
RPMI-8226 leukemia = test system: RPMI-8226 leukemia
RXF 393 renal = test system: RXF 393 renal
SF-268 CNS = test system: SF-268 CNS
SF-295 CNS = test system: SF-295 CNS
SF-539 CNS = test system: SF-539 CNS
SK-MEL-28 melanoma = test system: SK-MEL-28 melanoma
SK-MEL-5 melanoma = test system: SK-MEL-5 melanoma
SN12C renal = test system: SN12C renal
SNB-19 CNS = test system: SNB-19 CNS
SNB-75 CNS = test system: SNB-75 CNS
T-47D breast = test system: T-47D breast
TK-10 renal = test system: TK-10 renal
U251 CNS = test system: U251 CNS
UACC-257 melanoma = test system: UACC-257 melanoma
UACC-62 melanoma = test system: UACC-62 melanoma
UO-31 renal = test system: UO-31 renal

Compound: O=C1C(Cl)=C(Nc2ccc(Nc3ccccc3)c(NC3=C(Cl)C(=O)c4ccccc4C3=O)c2)C(=O)c2ccccc21
- GI50 (786-0 renal): 15.2 µM
- TGI (786-0 renal): 46.5 µM
- GI50 (A498 renal): 0.875 µM
- TGI (A498 renal): 14.4 µM
- GI50 (A549 NSCLC): 8.25 µM
- TGI (A549 NSCLC): > 100 µM
- GI50 (CAKI-1 renal): 5.36 µM
- TGI (CAKI-1 renal): 29 µM
- GI50 (CCRF-CEM leukemia): 3.71 µM
- TGI (CCRF-CEM leukemia): > 100 µM
- GI50 (DU-145 prostate): 14.9 µM
- TGI (DU-145 prostate): 28.4 µM
- GI50 (EKVX NSCLC): 11.4 µM
- TGI (EKVX NSCLC): 96.4 µM
- GI50 (HCC-2998 colon): 6.71 µM
- TGI (HCC-2998 colon): 41.2 µM
- GI50 (HCT-15 colon): 3.46 µM
- TGI (HCT-15 colon): > 100 µM
- GI50 (HL-60(TB) leukemia): 2.07 µM
- TGI (HL-60(TB) leukemia): 4.65 µM
- GI50 (HOP-62 NSCLC): 2.71 µM
- TGI (HOP-62 NSCLC): > 100 µM
- GI50 (HOP-92 NSCLC): 0.0439 µM
- TGI (HOP-92 NSCLC): 3.27 µM
- GI50 (HS 578T breast): 1.87 µM
- TGI (HS 578T breast): 6.36 µM
- GI50 (HT29 colon): 16.1 µM
- TGI (HT29 colon): > 100 µM
- GI50 (IGROV1 ovarian): 15.9 µM
- TGI (IGROV1 ovarian): 69.1 µM
- GI50 (LOX IMVI melanoma): 4.12 µM
- TGI (LOX IMVI melanoma): > 100 µM
- GI50 (M14 melanoma): 4.55 µM
- TGI (M14 melanoma): > 100 µM
- GI50 (MALME-3M melanoma): 2.5 µM
- TGI (MALME-3M melanoma): 5.71 µM
- GI50 (MCF7 breast): 5.31 µM
- TGI (MCF7 breast): 44 µM
- GI50 (MDA-MB-231 breast): 1.27 µM
- TGI (MDA-MB-231 breast): 6.02 µM
- GI50 (MDA-MB-435): 25 µM
- TGI (MDA-MB-435): > 100 µM
- GI50 (NCI-H226 lung): 16.7 µM
- TGI (NCI-H226 lung): 35.6 µM
- GI50 (NCI-H23 lung): 19.6 µM
- TGI (NCI-H23 lung): > 100 µM
- GI50 (NCI-H460 lung): 3.35 µM
- TGI (NCI-H460 lung): 13 µM
- GI50 (NCI/ADR-RES ovarian): 27.5 µM
- TGI (NCI/ADR-RES ovarian): > 100 µM
- GI50 (OVCAR-3 ovarian): 1.69 µM
- TGI (OVCAR-3 ovarian): 3.21 µM
- GI50 (OVCAR-5 ovarian): 24 µM
- TGI (OVCAR-5 ovarian): 66.8 µM
- GI50 (OVCAR-8 ovarian): 4.08 µM
- TGI (OVCAR-8 ovarian): > 100 µM
- GI50 (PC-3 prostate): 3.63 µM
- TGI (PC-3 prostate): 24.8 µM
- GI50 (RPMI-8226 leukemia): 3.33 µM
- TGI (RPMI-8226 leukemia): > 100 µM
- GI50 (RXF 393 renal): 3.09 µM
- TGI (RXF 393 renal): 14.2 µM
- GI50 (SF-268 CNS): 3.63 µM
- TGI (SF-268 CNS): 18.8 µM
- GI50 (SF-295 CNS): 3.79 µM
- TGI (SF-295 CNS): 19.9 µM
- GI50 (SF-539 CNS): 3.43 µM
- TGI (SF-539 CNS): 24.2 µM
- GI50 (SK-MEL-28 melanoma): 32.9 µM
- TGI (SK-MEL-28 melanoma): 96.5 µM
- GI50 (SK-MEL-5 melanoma): 13.1 µM
- TGI (SK-MEL-5 melanoma): 32 µM
- GI50 (SN12C renal): 2.97 µM
- TGI (SN12C renal): 13.7 µM
- GI50 (SNB-19 CNS): 4.34 µM
- TGI (SNB-19 CNS): 59.4 µM
- GI50 (SNB-75 CNS): 2.3 µM
- TGI (SNB-75 CNS): 6.97 µM
- GI50 (T-47D breast): 1.95 µM
- TGI (T-47D breast): 4.75 µM
- GI50 (TK-10 renal): 2.62 µM
- TGI (TK-10 renal): 4.5 µM
- GI50 (U251 CNS): 2.32 µM
- TGI (U251 CNS): 7.22 µM
- GI50 (UACC-257 melanoma): 6.12 µM
- TGI (UACC-257 melanoma): 33.7 µM
- GI50 (UACC-62 melanoma): 3.46 µM
- TGI (UACC-62 melanoma): 13.2 µM
- GI50 (UO-31 renal): 1.35 µM
- TGI (UO-31 renal): 7.71 µM
